By LD50 is commonly meant the dose at which mortality reaches 50%. A high value points to lower toxicity.

Data on 4 compounds can be found in EP0084678B1, “New compound having analgesic, antiinflammatory and mucoregulating activities, process for its production and relative pharmaceutical compositions” (AUSONIA FARMACEUTICI S.r.l., priority 1982, dated 1983).

A value given as a limit tells only on which side of the number the result lay.

Series [1] relates to gastric mucose. Put plainly: Gastrolesive action. The format is in vivo. The conditions noted are these: rats fasting since 18 hours, 5 hours 30 minutes after treatment. The procedure:
Rats fasting since 18 hours have been treated by oral route with AFP-696 and, for comparison, with acetylsalicylic acid, at the doses hereinafter stated. 5 Hours and 30 minutes after treatments, the animals have been sacrificed and the stomach has been withdrawn for gastric mucose examination.

Series [2] relates to writhings by phenylquinone. Put plainly: Analgesic activity, writhings by phenylquinone. The format is in vivo. The conditions noted are these: mouse; for % Inhibition in comparison with controls: writhings. As for the experimental part:
The test of writhings by phenylquinone in the mouse has been used. AFP-696 has been administered by oral route at the dose of 500 mg/kg in comparison with acetylsalicylic acid at the dose of […].
The two drugs have been administered per os 30 minutes after intraperitoneal injection of phenil- quinone.

The subject of series [3] is subplantar edema induced by carrageenin. Put plainly: Antiinflammatory activity, subplantar edema by carrageenin. Type of series: in vivo. The conditions noted are these: rat; for MEAN LIMB VOLUME AT DIFFERENT HOURS AFTER TREATMENT 0: hour 0; for MEAN LIMB VOLUME AT DIFFERENT HOURS AFTER TREATMENT 1: hour 1; for MEAN LIMB VOLUME AT DIFFERENT HOURS AFTER TREATMENT 2: hour 2; for MEAN LIMB VOLUME AT DIFFERENT HOURS AFTER TREATMENT 3: hour 3; for MEAN LIMB VOLUME AT DIFFERENT HOURS AFTER TREATMENT 4: hour 4; for MEAN LIMB VOLUME AT DIFFERENT HOURS AFTER TREATMENT 5: hour 5; for AREA Absolute value: limb volume over 5 hours. As for the experimental part: Tests have been performed on the rat, employing the test of the subplantar edema induced by carrageenin. […] and, for comparison, ASA, have been administered by oral route 30 minutes before carrageenin, at the doses hereinafter stated. After edema induction, the animals of each group have been controlled, every 60 minutes for 5 consecutives hours, in order to point out the evolution of the inflammatory process.

For series [4], the system named is cough induced by citric acid aerosol. Put plainly: Anti-cough activity, cough induced by citric acid aerosol. The format is in vivo, rabbits. As to conditions: cough strokes. As for the experimental part:
The anti-cough activity of AFP-696 has been assessed after administration by endoperitoneal route (30% in tween) on rabbits of both sexes, weighing […], according to the method of the cough induced by citric acid aerosol administration, and evaluating the mean number of cough strokes in comparison with the same basal values (Boura and coil. - Prog. Brit. Pharmac. Soc. Apr. 1970). As reference standard a group of codeine treated animals at the dose of 12.5 mg/kg has been used.

Series [5] relates to male rabbit. Put plainly: Mucosecretolytic activity (technique of Giraldez et al.). As to conditions: 500 mg/kg/os. The format is in vivo. The source says:
The mucosecretolytic activity has been studied in the male rabbit according to the technique of Giraldez, Grass and Bruseghini (Abstr. Comp. Int. Pharm. N. 1086-Paris 1978), by administration by the oral route, comparing AFP-696 with carboxymethylcysteine and sobrerol at the dose hereinafter stated.

The test system of series [6] is male Wistar rats. Put plainly: Bronchosecretogogue activity (Mawatari technique). The format is in vivo, rat. The conditions noted are these: 500 mg/kg/os, FlNa = Sodium fluoresceine. The source says:
The bronchosecretogogue activity has been determined in male Wistar rats by per os administration according to the method of Mawatari [Mawatari H., Kagoshima Daigaku Igaku-Zasshi, 27, 561 (1976)], comparing AFP-696 with carboxymethylcysteine and sobrerol at the doses hereinafter stated.

Series [7] is described as follows: Pharmacokinetics, plasma and lung levels by gas chromatography. The conditions noted are these: rats. The format is in vivo. As for the experimental part: Two groups of rats have been treated per os, by gastric tube, with AFP-696 at the dose of 100 mg/kg and acetylsalicylic acid at the dose of 54 mg/kg. At the moment of treatment rats were fasting since 18 hours. Rats have been then sacrificed in groups of 4 at different times: 30 min., 1 h, 2 h, 4 h, 6 h.
The concentration both of unchanged products and of their metabolites have been measured by gaschromatography in plasma and in the lung.

Series [8] in a line: Solubility of the isolated product. The format is physicochemical. The procedure: To 90 g of ASA in 500 ml of benzene, 120 g of thionyl chloride are added. The mixture is refluxed for three hours. At the end, the benzene is evaporated under reduced pressure to dryness. The acetylsalicyclic acid chloride so obtained is dissolved in 500 ml of anhydrous tetrahydrofuran and added with 80 g of pyridine; to this solution 85 g of sobrerol (di-trans form) are added. The reaction is completed after two hours refluxing. At the end the solvent is evaporated under reduced pressure, the residue is washed with water and extracted with ethyl ether. […] Its structure is confirmed by analytical and spectroscopical data: • Elemental analysis: for C19H24O5 (M.W. = 332.39) • calcd. % C = 68.66; H = 7.28 • found % C = 68.79; H = 7.33. • I.R. Spectrum (liquid film; values of absorption bands are expressed in cm^-1): • stretch 0-H 3550-3400 broad bands • stretch C-H aromatics alifatics 3080-2910 • stretch C = O alifat. ester 1780 • stretch C = O aromat. ester 1730 • stretch C = C 1615 • stretch C(= 0)-O acetate 1145 • stretch C(= 0)-0 arilyc 1255 • H' NMR Spectrum (recorded in CDCI3, internal references TMS; values of chemical shifts are expressed in 6): • 1.2 (d, 6H, 2(CH3)); • 1.8 (s, 3H, =C-CH3); • 1.4-2.2 (m, 6H, CH2-CH-CH2, OH mobile); • 2.3 (s, 3H, CO-CH3); • 5.3 (m, 1H, CH―O―CO); • 5.8 (m, 1H, CH=C-CH3); • 7-7.7 (m, 3H aromatics); • 8 (double d, 1H aromatic). […]

A short description of series [9]: Acute toxicity (Litchfield and Wilcoxon method), mouse. The conditions noted are these: Swiss, in vivo. The source says:
(§1) The acute toxicity has been determined in Swiss mouse and in Wistar rat for different administration routes, according to the method of Litchfield J.T. and Wilcoxon [J. Pharm. Exp. Therap. 96, 99―113, (1949)].
(§2) The results obtained are reported in the following Table I; from the same it can be pointed out how AFP 696 is endowed with a very low acute toxicity.

The nature of series [10]: Acute toxicity (Litchfield and Wilcoxon method), rat. The conditions noted are these: Wistar, in vivo.
Excerpt: as §1, §2

Turning to `CC(=O)Oc1ccccc1C(=O)O` [Acetylsalicylic acid, acetylsalicylic acid, reference compound], in series [1] (100 mg/kg/os), the “Mean ulcers' size” value was 3.9 ± 1.2 mm. Besides, in series [2] (250 mg/kg os), the “Mean No of writhings” value is reported as 0.6 ± 0.5, the “No animals with writhings” value is given as 1/10 and the “% Inhibition in comparison with controls” value was found to be 95.3%. In series [3] (250 mg/kg os), the “AREA % Inhibition in comparison with controls” value was found to be 33.6%, the “MEAN LIMB VOLUME AT DIFFERENT HOURS AFTER TREATMENT 0” value is recorded as 24.3, the “MEAN LIMB VOLUME AT DIFFERENT HOURS AFTER TREATMENT 1” value was found to be 27.4 and the “MEAN LIMB VOLUME AT DIFFERENT HOURS AFTER TREATMENT 2” value is listed as 32.2. In series [3] (250 mg/kg os), the “MEAN LIMB VOLUME AT DIFFERENT HOURS AFTER TREATMENT 3” value is listed as 37.8, the “MEAN LIMB VOLUME AT DIFFERENT HOURS AFTER TREATMENT 4” value came to 38.6, the “MEAN LIMB VOLUME AT DIFFERENT HOURS AFTER TREATMENT 5” value is 38.6 and the “AREA Absolute value” is 181.28.

With `COc1ccc2c3c1O[C@H]1[C@@H](O)C=C[C@H]4[C@@H](C2)N(C)CC[C@@]341` [Codeine, codeine, reference compound], in series [4] (12.5 mg/kg), the “% Inhibition in comparison with controls” value worked out at 76.7%.

Turning to `CC1=CCC(C(C)(C)O)CC1O` (stereo not drawn) [Sobrerol, 2-methyl-5-(1-hydroxy-1-methyl-ethyl)-2-cyclohexen-1-ol, reference compound], the “% Increase of secretion in comparison with controls” value in series [5] turned out to be 36.8%. For the same compound, in series [6], the “% Increase of FlNa (*) in comparison with controls” value was 33.4%.

Take `CC(=O)Oc1ccccc1C(=O)OC1CC(C(C)(C)O)CC=C1C` (stereo not drawn) [AFP-696, 2-acetoxybenzoate of 2-methyl-5-(1-hydroxy-1-methylethyl)-cyclohexen-2-yl]: the “pulmonary levels of salicylic acid” value in series [7] (100 mg/kg per os vs acetylsalicylic acid 54 mg/kg, lung) is listed as “higher”. Also, in [7] (100 mg/kg per os vs acetylsalicylic acid 54 mg/kg, more marked in the first two hours), the “plasma levels of acetylsalicylic acid in comparison with the administration of acetylsalicylic acid at equimolar doses” value is recorded as “higher”. In addition, the “unchanged AFP-696 in plasma” value in [7] (100 mg/kg per os, at 30 minutes and in some instance also at 1 hour) was “found in plasma”. Moreover, in series [8] (organic solvents), the “solubility in organic solvents” value is given as “easily soluble”. Moreover, the solubility in water result in [8] (water) is on record as “slightly soluble”. Also, the LD50 in series [9] (ip) was 1600 mg/kg. This compound registered an LD50 in [9] (oral, os) of 3500 mg/kg. Further, in [1] (150 mg/kg/os), the “Mean ulcers' size” value worked out at 0.7 ± 0.4 mm. In series [10] (ip), this compound returned a 50% lethal dose (LD50) of 1950 mg/kg. In addition, the LD50 in series [10] (oral, os) was > 4000 mg/kg. In [5], the “% Increase of secretion in comparison with controls” value is given as 39.5%. Further, in [6], the “% Increase of FlNa (*) in comparison with controls” value is recorded as 63.6%. Also, in series [2] (500 mg/kg os), the “Mean No of writhings” value amounted to 1.3 ± 0.9, the “No animals with writhings” value is reported as 3/10 and the “% Inhibition in comparison with controls” value is recorded as 89.8%. Further, in series [3] (500 mg/kg os), the “AREA % Inhibition in comparison with controls” value was 33.0%, the “MEAN LIMB VOLUME AT DIFFERENT HOURS AFTER TREATMENT 0” value was determined as 24.1, the “MEAN LIMB VOLUME AT DIFFERENT HOURS AFTER TREATMENT 1” value is listed as 28.1 and the “MEAN LIMB VOLUME AT DIFFERENT HOURS AFTER TREATMENT 2” value was 31.4. Besides, in series [3] (500 mg/kg os), the “MEAN LIMB VOLUME AT DIFFERENT HOURS AFTER TREATMENT 3” value was found to be 37.4, the “MEAN LIMB VOLUME AT DIFFERENT HOURS AFTER TREATMENT 4” value stood at 38.1, the “MEAN LIMB VOLUME AT DIFFERENT HOURS AFTER TREATMENT 5” value is 38.1 and the “AREA Absolute value” is recorded as 183.0. Besides, the “% Inhibition in comparison with controls” value in series [4] (150 mg/kg, endoperitoneal route (30% in tween)) is given as 82.4%.
